{"source": "ChEMBL document CHEMBL3045484", "about": "“Molecular modeling and synthesis of ZINC02765569 derivatives as protein tyrosine phosphatase 1B inhibitors: lead optimization study” (Med Chem Res, 2013)", "key": {"[1]": {"target": "T1, Tyrosine-protein phosphatase non-receptor type 1 (Homo sapiens) (UniProt P18031)", "T1 sequence (whole entry)": "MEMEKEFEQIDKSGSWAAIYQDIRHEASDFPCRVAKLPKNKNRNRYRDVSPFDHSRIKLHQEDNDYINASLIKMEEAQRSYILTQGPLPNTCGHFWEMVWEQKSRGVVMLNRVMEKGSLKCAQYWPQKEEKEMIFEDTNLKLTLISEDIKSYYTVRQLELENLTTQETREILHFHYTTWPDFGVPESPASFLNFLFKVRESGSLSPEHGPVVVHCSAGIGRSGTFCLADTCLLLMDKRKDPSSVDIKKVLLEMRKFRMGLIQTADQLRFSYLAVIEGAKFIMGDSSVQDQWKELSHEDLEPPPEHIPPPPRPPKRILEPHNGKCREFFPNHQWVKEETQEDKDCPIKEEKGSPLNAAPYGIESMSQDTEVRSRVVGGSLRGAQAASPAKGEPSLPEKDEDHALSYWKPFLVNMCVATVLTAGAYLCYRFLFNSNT", "assay": "Inhibition of Homo sapiens (human) recombinant PTP1B assessed as decrease in free phosphate release at 10 uM by malachite staining relative to control"}, "[2]": {"target": "T2, Tyrosine-protein phosphatase non-receptor type 1 (Rattus norvegicus) (UniProt P20417)", "T2 sequence (whole entry)": "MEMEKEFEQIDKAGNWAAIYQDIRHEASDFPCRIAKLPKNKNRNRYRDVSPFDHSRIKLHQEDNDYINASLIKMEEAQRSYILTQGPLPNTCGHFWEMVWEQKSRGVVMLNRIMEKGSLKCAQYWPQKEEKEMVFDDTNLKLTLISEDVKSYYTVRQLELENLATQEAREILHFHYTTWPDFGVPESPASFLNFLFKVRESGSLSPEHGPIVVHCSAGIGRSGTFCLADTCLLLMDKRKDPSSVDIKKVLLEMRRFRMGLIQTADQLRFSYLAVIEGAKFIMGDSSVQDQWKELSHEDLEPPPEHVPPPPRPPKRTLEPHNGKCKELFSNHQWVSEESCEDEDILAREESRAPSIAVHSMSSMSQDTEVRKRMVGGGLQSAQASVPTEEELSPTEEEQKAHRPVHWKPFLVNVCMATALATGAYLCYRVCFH", "assay": "Inhibition of PTP1B in Rattus norvegicus (rat) L6 cells assessed as increase in 2-deoxy-D-[U-14C]-glucose uptake at 50 uM after 18 hr relative to control", "assay_type": "cell-based"}}, "data": [{"smiles": "O=C(CSc1nc2ccccc2[nH]1)Nc1ccc(C(=O)O)cc1", "values": [{"measurement": "inhibition", "setting": "[1]", "result": 18.7, "unit": "%"}, {"measurement": "inhibition", "setting": "[2]", "result": 22.5, "unit": "%"}]}, {"smiles": "O=C(CSc1nc2ccccc2s1)Nc1cccc(C(=O)O)c1", "values": [{"measurement": "inhibition", "setting": "[1]", "result": 24.2, "unit": "%"}, {"measurement": "inhibition", "setting": "[2]", "result": 59.2, "unit": "%"}]}, {"smiles": "O=C(CSc1nc2ccccc2[nH]1)Nc1cc(C(=O)O)ccc1Cl", "values": [{"measurement": "inhibition", "setting": "[1]", "result": 35.8, "unit": "%"}, {"measurement": "inhibition", "setting": "[2]", "result": 28.7, "unit": "%"}]}, {"smiles": "COc1cccc2[nH]c(SCC(=O)Nc3cc(C(=O)O)ccc3Cl)nc12", "values": [{"measurement": "inhibition", "setting": "[1]", "result": 62.7, "unit": "%"}, {"measurement": "inhibition", "setting": "[2]", "result": 26.6, "unit": "%"}]}, {"smiles": "O=C(CSc1nc2ccccc2[nH]1)Nc1cc(C(=O)O)ccc1O", "values": [{"measurement": "inhibition", "setting": "[1]", "result": 23.2, "unit": "%"}, {"measurement": "inhibition", "setting": "[2]", "result": 58.6, "unit": "%"}]}, {"smiles": "O=C(CSc1nc2ccccc2s1)Nc1cc(C(=O)O)ccc1O", "values": [{"measurement": "inhibition", "setting": "[1]", "result": 53.9, "unit": "%"}, {"measurement": "inhibition", "setting": "[2]", "result": 29.2, "unit": "%"}]}, {"smiles": "O=C(CSc1nc2c([N+](=O)[O-])cccc2[nH]1)Nc1cc(C(=O)O)ccc1Cl", "values": [{"measurement": "inhibition", "setting": "[1]", "result": 36.6, "unit": "%"}, {"measurement": "inhibition", "setting": "[2]", "result": 37.6, "unit": "%"}]}, {"smiles": "O=C(CSc1nc2ccccc2s1)Nc1cc(C(=O)O)ccc1Cl", "values": [{"measurement": "inhibition", "setting": "[1]", "result": 56.2, "unit": "%"}, {"measurement": "inhibition", "setting": "[2]", "result": 28.7, "unit": "%"}]}, {"smiles": "O=C(CSc1nc2ccccc2s1)Nc1ccc(C(=O)O)cc1", "values": [{"measurement": "inhibition", "setting": "[1]", "result": 66.4, "unit": "%"}, {"measurement": "inhibition", "setting": "[2]", "result": 39.6, "unit": "%"}]}, {"smiles": "Cc1cccc2[nH]c(SCC(=O)Nc3cc(C(=O)O)ccc3Cl)nc12", "values": [{"measurement": "inhibition", "setting": "[1]", "result": 20.9, "unit": "%"}, {"measurement": "inhibition", "setting": "[2]", "result": 31.4, "unit": "%"}]}]}
